Blank lines part the entries; values can stand above or below the molecule they belong to.
Columns and labels:
[1] = Induction of anti-CD3/CD28 antibodies-stimulated human T cell activation at 4 uM assessed fold increase in CD25 expression measured by ELISA assay; type: functional, T cell line
[2] = Induction of anti-CD3 antibodies-stimulated human exhausted CD8+ T cell activation assessed fold increase in CTLA4 expression measured by flow cytometry analysis; type: functional, T cell line; also: reference of the scale not given here
[3] = Induction of anti-CD3/CD28 antibodies-stimulated human anergic T cell activation at 10 uM assessed fold increase in IFN-gamma secretion measured by ELISA assay; type: functional, T cell line
[4] = Induction of anti-CD3/CD28 antibodies-stimulated human T cell activation at 1 uM assessed fold increase in CD25 expression measured by ELISA assay; type: functional, T cell line
[5] = Induction of anti-CD3 antibodies-stimulated human T cell activation at 8 uM assessed fold increase in CD25 expression measured by ELISA assay; type: functional, T cell line; also: reference of the scale not given here
[6] = Induction of allogenic human T cell activation at 3 uM assessed fold increase in cell proliferation; type: functional, T cell line
[7] = Induction of allogenic human T cell activation at 10 uM assessed fold increase in cell proliferation; type: functional, T cell line
[8] = Induction of anti-CD3/CD28 antibodies-stimulated human T cell activation at 4 uM assessed fold increase in IL-2 secretion measured by ELISA assay; type: functional, T cell line
[9] = Induction of anti-CD3 antibodies-stimulated human T cell activation at 8 uM assessed fold increase in IL-2 secretion measured by ELISA assay; type: functional, T cell line; also: reference of the scale not given here
[10] = Induction of anti-CD3/CD28 antibodies-stimulated human anergic T cell activation at 1.11 uM assessed fold increase in IFN-gamma secretion measured by ELISA assay; type: functional, T cell line
[11] = Induction of anti-CD3 antibodies-stimulated human exhausted T cell activation assessed fold increase in GM-CSF secretion measured by ELISA assay; type: functional, T cell line; also: reference of the scale not given here
[12] = Induction of anti-CD3 antibodies-stimulated human exhausted T cell activation assessed fold increase in IFN-gamma secretion measured by ELISA assay; type: functional, T cell line; also: reference of the scale not given here
[13] = Induction of activation of human CD56+ CD3- NK cells co-cultured with human K562 cells in 1:1 ratio and assessed as increase in TNF-alpha secretion at 10 uM measured by ELISA assay; type: functional, Natural killer cell
[14] = Induction of anti-CD3 antibodies-stimulated human T cell activation at 1 uM assessed fold increase in CD25 expression measured by ELISA assay; type: functional, T cell line; also: reference of the scale not given here
[15] = Induction of activation of human CD56+ CD3- NK cells co-cultured with human K562 cells in 1:1 ratio and assessed as increase in TNF-alpha secretion at 2.5 uM measured by ELISA assay; type: functional, Natural killer cell
[16] = Induction of activation of human CD56+ CD3- NK cells co-cultured with human K562 cells in 1:1 ratio and assessed as increase in IFN-gamma secretion at 2.5 uM measured by ELISA assay; type: functional, Natural killer cell
[17] = Induction of anti-CD3 antibodies-stimulated human exhausted T cell activation assessed fold increase in IL-2 secretion measured by ELISA assay; type: functional, T cell line; also: reference of the scale not given here
[18] = Induction of anti-CD3 antibodies-stimulated human exhausted CD4+ T cell activation assessed fold increase in CTLA4 expression measured by flow cytometry analysis; type: functional, T cell line; also: reference of the scale not given here
[19] = Induction of anti-CD3/CD28 antibodies-stimulated human T cell activation at 0.3 uM assessed fold increase in CD25 expression measured by ELISA assay; type: functional, T cell line
[20] = Induction of anti-CD3/CD28 antibodies-stimulated human T cell activation at 1 uM assessed fold increase in IL-2 secretion measured by ELISA assay; type: functional, T cell line
[21] = Induction of activation of human CD56+ CD3- NK cells co-cultured with human K562 cells in 1:1 ratio and assessed as increase in TNF-alpha secretion at 0.625 uM measured by ELISA assay; type: functional, Natural killer cell
[22] = Induction of activation of human CD56+ CD3- NK cells co-cultured with human K562 cells in 1:1 ratio and assessed as increase in IFN-gamma secretion at 10 uM measured by ELISA assay; type: functional, Natural killer cell
[23] = Induction of anti-CD3/CD28 antibodies-stimulated human T cell activation at 0.3 uM assessed fold increase in IL-2 secretion measured by ELISA assay; type: functional, T cell line
[24] = Induction of anti-CD3/CD28 antibodies-stimulated human anergic T cell activation at 0.37 uM assessed fold increase in IFN-gamma secretion measured by ELISA assay; type: functional, T cell line
[25] = test system: B cell; experiment: Induction of anti-IgM-stimulated human CD20+ B cell activation at 10 to 1000 uM assessed as increase in CD69 expression measured as mean fluorescence intensity AUC by flow cytometry analysis; type: functional, cell-based; details: dose 10-1000 µM
[26] = Induction of anti-CD3 antibodies-stimulated human T cell activation at 1 uM assessed fold increase in IL-2 secretion measured by ELISA assay; type: functional, T cell line; also: reference of the scale not given here
[27] = Induction of activation of human CD56+ CD3- NK cells co-cultured with human K562 cells in 1:1 ratio and assessed as increase in IFN-gamma secretion at 0.625 uM measured by ELISA assay; type: functional, Natural killer cell
[28] = molecular target: T1, E3 ubiquitin-protein ligase CBL-B (Homo sapiens, UniProt Q13191); experiment: Inhibition of N-terminal Avi-tagged human CBL-B (36 to 427 residues) incubated with 30 nM Src kinase for 1.5 hrs followed by incubation with fluorescently labeled UbcH5B-Ub for 1 hr and measured by TR-FRET assay
T1 sequence (Q13191 whole entry, the tested form may be a part): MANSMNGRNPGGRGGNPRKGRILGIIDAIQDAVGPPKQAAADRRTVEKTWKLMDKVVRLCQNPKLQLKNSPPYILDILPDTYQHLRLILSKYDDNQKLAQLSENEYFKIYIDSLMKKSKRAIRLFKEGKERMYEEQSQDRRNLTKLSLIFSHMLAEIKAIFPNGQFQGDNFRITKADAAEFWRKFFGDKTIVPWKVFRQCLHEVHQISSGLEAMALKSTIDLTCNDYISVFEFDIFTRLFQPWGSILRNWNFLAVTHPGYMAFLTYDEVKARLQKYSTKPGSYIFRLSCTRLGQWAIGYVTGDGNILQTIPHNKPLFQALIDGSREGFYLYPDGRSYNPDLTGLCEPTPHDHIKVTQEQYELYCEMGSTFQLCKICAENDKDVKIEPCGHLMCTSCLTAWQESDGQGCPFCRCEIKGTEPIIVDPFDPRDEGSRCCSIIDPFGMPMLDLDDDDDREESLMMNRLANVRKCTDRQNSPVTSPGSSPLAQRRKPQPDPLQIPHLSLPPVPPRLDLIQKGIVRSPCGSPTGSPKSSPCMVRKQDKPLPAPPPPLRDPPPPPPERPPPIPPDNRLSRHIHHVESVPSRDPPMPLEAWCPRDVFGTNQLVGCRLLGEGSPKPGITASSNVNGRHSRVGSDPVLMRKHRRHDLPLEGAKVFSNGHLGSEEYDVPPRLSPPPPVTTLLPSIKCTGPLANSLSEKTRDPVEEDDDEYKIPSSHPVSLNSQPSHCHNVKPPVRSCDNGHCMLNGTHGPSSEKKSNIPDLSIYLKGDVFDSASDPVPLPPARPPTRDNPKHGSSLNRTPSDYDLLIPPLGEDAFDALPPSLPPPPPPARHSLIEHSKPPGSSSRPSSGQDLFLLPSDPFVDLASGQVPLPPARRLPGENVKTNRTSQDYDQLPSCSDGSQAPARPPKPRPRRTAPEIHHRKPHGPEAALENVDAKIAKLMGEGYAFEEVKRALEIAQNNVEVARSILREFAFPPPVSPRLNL

[29] = molecular target: T1, E3 ubiquitin-protein ligase CBL-B; experiment: Inhibition of N-terminal Avi-tagged human CBL-B (36 to 427 residues) incubated with 60 nM Src kinase for 1.5 hrs followed by incubation with fluorescently labeled UbcH5B-Ub for 1 hr and measured by TR-FRET assay; type: single protein
[30] = Induction of anti-CD3 antibodies-stimulated human CD4+ T cell activation in immunocompetent mouse assessed fold increase in CD25 expression at 135 mg/kg, po administered twice a day; type: functional; also: reference of the scale not given here
[31] = Induction of anti-CD3 antibodies-stimulated human CD8+ T cell activation in immunocompetent mouse assessed fold increase in CD25 expression at 90 mg/kg, po administered twice a day; type: functional; also: reference of the scale not given here
[32] = molecular target: T1, E3 ubiquitin-protein ligase CBL-B; experiment: Binding affinity towards N-terminal biotinylated Avi-tagged human CBL-B (36 to 427 residues) measured by surface plasmon resonance assay

Compound: C[C@H](Cc1nncn1C)c1ccnc(NC(=O)c2cccc(C(F)(F)F)n2)c1
fold change (FC) [1]: 1.01 | fold change (FC) [2]: <=1.4 | fold change (FC) [3]: <=2.5 | fold change (FC) [4]: 1.01 | fold change (FC) [5]: 0.801 | fold change (FC) [6]: <=2 | fold change (FC) [7]: <=2 | fold change (FC) [8]: >=7.5 | fold change (FC) [9]: 0.051 | fold change (FC) [10]: <=2.5 | fold change (FC) [11]: <=1.4 | fold change (FC) [12]: <=1.4 | fold change (FC) [13]: 1.01 | fold change (FC) [14]: <=0.6 | fold change (FC) [15]: 1.01 | fold change (FC) [16]: <=1 | fold change (FC) [17]: <=2.5 | fold change (FC) [18]: <=1.4 | fold change (FC) [19]: 1.01 | fold change (FC) [20]: 2.51 | fold change (FC) [21]: 1.01 | fold change (FC) [22]: 2.01 | fold change (FC) [23]: 2.51 | fold change (FC) [24]: <=2.5 | AUC [25]: 0.5 | fold change (FC) [26]: <=0.05 | fold change (FC) [27]: 1.01

Compound: C[C@H](c1cc2c(c(C(F)(F)F)c1)CN(c1cccc(C3(Cc4nncn4C)COC3)c1)C2=O)N1CCC(C)(F)CC1
fold change (FC) [4]: >=1.76 | IC50 [29]: < 100 nM | fold change (FC) [14]: >=1.001 | fold change (FC) [30]: >2.5 | fold change (FC) [31]: 1 | fold change (FC) [19]: >=1.76 | fold change (FC) [20]: >=7.5 | fold change (FC) [23]: >=7.5 | fold change (FC) [26]: >=0.201

Compound: Cn1cnnc1[C@H](F)C1(c2cccc(N3Cc4c(cc(CN5CCC(F)CC5)cc4C(F)(F)F)C3=O)c2)COC1
fold change (FC) [4]: >=1.76 | IC50 [29]: < 100 nM | fold change (FC) [14]: >=1.001 | fold change (FC) [30]: 1.51 | fold change (FC) [31]: 1 | Kd [32]: < 100 nM | fold change (FC) [19]: >=1.76 | fold change (FC) [20]: >=7.5 | fold change (FC) [23]: >=7.5 | fold change (FC) [26]: >=0.201

Compound: Cn1cnnc1CC1(c2cccc(N3Cc4c(cc(CN5CCC[C@H](F)C5)cc4C(F)(F)F)C3=O)c2)COC1
fold change (FC) [4]: 1.31 | IC50 [29]: < 100 nM | fold change (FC) [14]: >=1.001 | fold change (FC) [30]: 1 | fold change (FC) [31]: 1 | fold change (FC) [19]: 1.31 | fold change (FC) [20]: >=7.5 | fold change (FC) [23]: >=7.5 | fold change (FC) [26]: >=0.201

Continued, in another order:

IC50 [28]: > 10 µM
Compound: CC(Sc1nncn1C)c1cc(CO)cc(NC(=O)c2ccc3ccccc3n2)c1 (centres undefined)

IC50 [28]: ≥ 3 µM
Compound: CC(Sc1nncn1C)c1cccc(NC(=O)c2cnc3ccccc3c2)c1 (centres undefined)

IC50 [28]: > 10 µM
Compound: CC(Sc1nncn1C)c1cccc(NC(=O)c2cc3ccccc3c(=O)[nH]2)c1 (centres undefined)

IC50 [28]: > 10 µM
Compound: CC(Sc1nncn1C)c1cccc(NC(=O)c2ccc3cnccc3c2)c1 (centres undefined)

IC50 [29]: < 100 nM | Kd [32]: < 100 nM
Compound: C[C@@H](c1cc2c(c(C(F)(F)F)c1)CN(c1cccc(C3(Cc4nncn4C)COC3)c1)C2=O)N1CCC(C)(F)CC1
fold change (FC) [4]: >=1.76 | fold change (FC) [14]: >=1.001 | fold change (FC) [30]: 1 | fold change (FC) [31]: 1 | fold change (FC) [19]: >=1.76 | fold change (FC) [20]: >=7.5 | fold change (FC) [23]: >=7.5 | fold change (FC) [26]: >=0.201

— ChEMBL document CHEMBL5050844 (2019)
